From patent US11498899B2, “Nitrone herbicides” (FMC Corporation, priority 2016, dated 2022)

Assays:
[1] = system: barnyardgrass (Echinochloa crus-galli); assay: Test A preemergence, visual injury rating 0-100 (0 no effect, 100 complete control); format: in vivo
[2] = system: foxtail, giant (giant foxtail, Setaria faberii); assay: Test A preemergence, visual injury rating 0-100; format: in vivo
[3] = system: kochia (Kochia scoparia); assay: Test A preemergence, visual injury rating 0-100; format: in vivo
[4] = system: pigweed (Amaranthus retroflexus); assay: Test A preemergence, visual injury rating 0-100; format: in vivo
[5] = system: ragweed (common ragweed, Ambrosia elatior); assay: Test A preemergence, visual injury rating 0-100; format: in vivo
[6] = system: ryegrass, Italian (Italian ryegrass, Lolium multiflorum); assay: Test A preemergence, visual injury rating 0-100; format: in vivo; conditions: 500 g ai/ha
[7] = system: barnyardgrass (Echinochloa crus-galli); assay: Test A postemergence, visual injury rating 0-100; format: in vivo; conditions: 0 to 100 scale
[8] = system: blackgrass (Alopecurus myosuroides); assay: Test A postemergence, visual injury rating 0-100; format: in vivo; conditions: 0 to 100 scale
[9] = system: corn (Zea mays); assay: Test A postemergence, visual injury rating 0-100; format: in vivo; conditions: 0 to 100 scale
[10] = system: foxtail, giant (giant foxtail, Setaria faberii); assay: Test A postemergence, visual injury rating 0-100; format: in vivo; conditions: 0 to 100 scale
[11] = system: galium (catchweed bedstraw, Galium aparine); assay: Test A postemergence, visual injury rating 0-100; format: in vivo; conditions: 0 to 100 scale
[12] = system: kochia (Kochia scoparia); assay: Test A postemergence, visual injury rating 0-100; format: in vivo; conditions: 0 to 100 scale
[13] = system: pigweed (Amaranthus retroflexus); assay: Test A postemergence, visual injury rating 0-100; format: in vivo; conditions: 0 to 100 scale
[14] = system: ragweed (common ragweed, Ambrosia elatior); assay: Test A postemergence, visual injury rating 0-100; format: in vivo; conditions: 0 to 100 scale
[15] = system: ryegrass, Italian (Italian ryegrass, Lolium multiflorum); assay: Test A postemergence, visual injury rating 0-100; format: in vivo; conditions: 0 to 100 scale
[16] = system: wheat (Triticum aestivum); assay: Test A postemergence, visual injury rating 0-100; format: in vivo; conditions: 0 to 100 scale
[17] = system: ducksalad (Heteranthera limosa); assay: Test B flooded paddy test, visual rating 0-100; conditions: Flood, 250 g ai/ha, applied to paddy water, rated after 13 to 15 days
[18] = system: barnyardgrass (Echinochloa crus-galli); assay: Test B flooded paddy test, visual rating 0-100; conditions: Flood, 250 g ai/ha, applied to paddy water, rated after 13 to 15 days
[19] = system: rice (Oryza sativa); assay: Test B flooded paddy test, visual rating 0-100 (0 no effect, 100 complete control); conditions: Flood, 250 g ai/ha, applied to paddy water, rated after 13 to 15 days

| SMILES | Barnyardgrass plant response rating (0 to 100 scale) ([1]; 125 g ai/ha) | Barnyardgrass plant response rating (0 to 100 scale) ([1]; 500 g ai/ha) | Foxtail, Giant plant response rating (0 to 100 scale) ([2]; 125 g ai/ha) | Foxtail, Giant plant response rating (0 to 100 scale) ([2]; 500 g ai/ha) | Kochia plant response rating (0 to 100 scale) ([3]; 125 g ai/ha) | Kochia plant response rating (0 to 100 scale) ([3]; 500 g ai/ha) | Pigweed plant response rating (0 to 100 scale) ([4]; 125 g ai/ha) | Pigweed plant response rating (0 to 100 scale) ([4]; 500 g ai/ha) | Ragweed plant response rating (0 to 100 scale) ([5]; 125 g ai/ha) | Ragweed plant response rating (0 to 100 scale) ([5]; 500 g ai/ha) | Ryegrass, Italian plant response rating (0 to 100 scale) [6] | Barnyardgrass plant response rating ([7]; 125 g ai/ha) | Barnyardgrass plant response rating ([7]; 500 g ai/ha) | Blackgrass plant response rating ([8]; 125 g ai/ha) | Blackgrass plant response rating ([8]; 500 g ai/ha) | Corn plant response rating ([9]; 125 g ai/ha) | Corn plant response rating ([9]; 500 g ai/ha) | Foxtail, Giant plant response rating ([10]; 125 g ai/ha) | Foxtail, Giant plant response rating ([10]; 500 g ai/ha) | Galium plant response rating ([11]; 125 g ai/ha) | also measured |
| --- | --- | --- | --- | --- | --- | --- | --- | --- | --- | --- | --- | --- | --- | --- | --- | --- | --- | --- | --- | --- | --- |
| CC1=[N+]([O-])C(C(=O)Nc2cccc(F)c2F)C(c2ccc(Cl)c(F)c2)C1 (racemic) [Compound 107] | 90 | 90 | 90 | 90 | 0 | 90 | 0 | 80 | 0 | 50 | 80 | 70 | 90 | 70 | 70 | 30 | 80 | 60 | 90 | 70 | Galium plant response rating ([11]; 500 g ai/ha): 70; Kochia plant response rating ([12]; 125 g ai/ha): 20; Kochia plant response rating ([12]; 500 g ai/ha): 20; Pigweed plant response rating ([13]; 125 g ai/ha): 0; Pigweed plant response rating ([13]; 500 g ai/ha): 30; Ragweed plant response rating ([14]; 125 g ai/ha): 30; Ragweed plant response rating ([14]; 500 g ai/ha): 60; Ryegrass, Italian plant response rating ([15]; 125 g ai/ha): 10; Ryegrass, Italian plant response rating ([15]; 500 g ai/ha): 70; Wheat plant response rating ([16]; 125 g ai/ha): 10; Wheat plant response rating ([16]; 500 g ai/ha): 60; Ducksalad plant response rating (0 to 100 scale) [17]: 70; Barnyardgrass plant response rating (0 to 100 scale) [18]: 40; Rice plant response rating (0 to 100 scale) [19]: 0 |
| CC1=[N+]([O-])C(C(=O)Nc2cccc(F)c2F)C(c2cc(C)cc(CF)c2)C1 (racemic) [Compound 108] | 90 | 100 | 90 | 100 | 20 | 90 | 0 | 70 | 0 | 70 | 90 | 70 | 80 | 90 | 90 | 60 | 90 | 70 | 90 | 50 | Galium plant response rating ([11]; 500 g ai/ha): 70; Kochia plant response rating ([12]; 125 g ai/ha): 0; Kochia plant response rating ([12]; 500 g ai/ha): 20; Pigweed plant response rating ([13]; 125 g ai/ha): 0; Pigweed plant response rating ([13]; 500 g ai/ha): 20; Ragweed plant response rating ([14]; 125 g ai/ha): 30; Ragweed plant response rating ([14]; 500 g ai/ha): 50; Ryegrass, Italian plant response rating ([15]; 125 g ai/ha): 40; Ryegrass, Italian plant response rating ([15]; 500 g ai/ha): 70; Wheat plant response rating ([16]; 125 g ai/ha): 30; Wheat plant response rating ([16]; 500 g ai/ha): 70; Ducksalad plant response rating (0 to 100 scale) [17]: 0; Barnyardgrass plant response rating (0 to 100 scale) [18]: 0; Rice plant response rating (0 to 100 scale) [19]: 0 |
